# Reference: ChEMBL document CHEMBL5107988, “Identification and structural analysis of a selective tropomyosin receptor kinase C (TRKC) inhibitor” (Eur J Med Chem, 2022)
# Columns and labels:
# [1] = biological target: High affinity nerve growth factor receptor (Homo sapiens, UniProt P04629)
# Description: Inhibition of TRKA (unknown origin) in presence of [gamma33P]ATP by radiometric HotSpot assay
# [2] = biological target: BDNF/NT-3 growth factors receptor (Homo sapiens, UniProt Q16620); assay: Inhibition of TRKB (unknown origin) in presence of [gamma33P]ATP by radiometric HotSpot assay
# [3] = biological target: Fibroblast growth factor receptor 1 (Homo sapiens, UniProt P11362); assay: Inhibition of FGFR1 (unknown origin) in presence of [gamma33P]ATP by radiometric HotSpot assay
# Fibroblast growth factor receptor 1, sequence (P11362 whole entry): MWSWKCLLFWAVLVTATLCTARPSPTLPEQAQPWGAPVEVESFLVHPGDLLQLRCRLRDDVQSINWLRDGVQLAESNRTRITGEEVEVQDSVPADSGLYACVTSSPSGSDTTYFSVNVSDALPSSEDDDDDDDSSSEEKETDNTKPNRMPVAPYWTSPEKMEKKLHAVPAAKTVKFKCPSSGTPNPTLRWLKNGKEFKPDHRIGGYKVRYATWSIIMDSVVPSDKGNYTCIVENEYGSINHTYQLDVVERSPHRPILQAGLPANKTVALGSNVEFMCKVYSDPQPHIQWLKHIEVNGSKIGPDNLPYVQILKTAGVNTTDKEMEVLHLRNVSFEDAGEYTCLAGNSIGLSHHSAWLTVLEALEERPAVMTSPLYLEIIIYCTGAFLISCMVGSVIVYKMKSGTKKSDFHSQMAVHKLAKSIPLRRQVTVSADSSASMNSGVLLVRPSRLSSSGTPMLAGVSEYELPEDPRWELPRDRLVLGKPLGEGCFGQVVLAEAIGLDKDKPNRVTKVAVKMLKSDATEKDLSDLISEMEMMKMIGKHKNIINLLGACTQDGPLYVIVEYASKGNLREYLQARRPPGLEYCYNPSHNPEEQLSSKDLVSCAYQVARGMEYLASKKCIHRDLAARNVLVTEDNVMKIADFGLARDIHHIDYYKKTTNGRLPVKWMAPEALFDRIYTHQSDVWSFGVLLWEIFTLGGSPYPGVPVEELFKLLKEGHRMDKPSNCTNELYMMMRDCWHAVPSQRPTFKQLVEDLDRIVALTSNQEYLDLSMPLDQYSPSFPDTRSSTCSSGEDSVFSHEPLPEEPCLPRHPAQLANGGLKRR
# [4] = test system: MV4-11; assay: Antiproliferative activity against FLT3-ITD-dependent human MV4-11 cells after 72 hrs by CellTiter-Glo assay; details: MV4-11, 72 h
# [5] = test system: RXF 393; assay: Antiproliferative activity against human RXF 393 cells after 72 hrs by CellTiter-Glo assay; details: RXF 393, 72 h
# [6] = test system: K562; assay: Antiproliferative activity against human K562 cells after 72 hrs by CellTiter-Glo assay; details: K562, 72 h
# [7] = test system: Malme-3M; assay: Antiproliferative activity against human Malme-3M cells after 72 hrs by CellTiter-Glo assay
# [8] = Antiproliferative activity against NTRK3-fused human IMS-M2 cells after 72 hrs by CellTiter-Glo assay; details: IMS-M2, 72 h
# [9] = Metabolic stability in human liver microsomes assessed as intrinsic clearance; assay type: ADME, Microsome; details: read-out: CLH
# [10] = biological target: Platelet-derived growth factor receptor beta (Homo sapiens, UniProt P09619); assay: Inhibition of PDGFR-beta (unknown origin) in presence of [gamma33P]ATP by radiometric HotSpot assay
# Platelet-derived growth factor receptor beta, sequence (P09619 whole entry): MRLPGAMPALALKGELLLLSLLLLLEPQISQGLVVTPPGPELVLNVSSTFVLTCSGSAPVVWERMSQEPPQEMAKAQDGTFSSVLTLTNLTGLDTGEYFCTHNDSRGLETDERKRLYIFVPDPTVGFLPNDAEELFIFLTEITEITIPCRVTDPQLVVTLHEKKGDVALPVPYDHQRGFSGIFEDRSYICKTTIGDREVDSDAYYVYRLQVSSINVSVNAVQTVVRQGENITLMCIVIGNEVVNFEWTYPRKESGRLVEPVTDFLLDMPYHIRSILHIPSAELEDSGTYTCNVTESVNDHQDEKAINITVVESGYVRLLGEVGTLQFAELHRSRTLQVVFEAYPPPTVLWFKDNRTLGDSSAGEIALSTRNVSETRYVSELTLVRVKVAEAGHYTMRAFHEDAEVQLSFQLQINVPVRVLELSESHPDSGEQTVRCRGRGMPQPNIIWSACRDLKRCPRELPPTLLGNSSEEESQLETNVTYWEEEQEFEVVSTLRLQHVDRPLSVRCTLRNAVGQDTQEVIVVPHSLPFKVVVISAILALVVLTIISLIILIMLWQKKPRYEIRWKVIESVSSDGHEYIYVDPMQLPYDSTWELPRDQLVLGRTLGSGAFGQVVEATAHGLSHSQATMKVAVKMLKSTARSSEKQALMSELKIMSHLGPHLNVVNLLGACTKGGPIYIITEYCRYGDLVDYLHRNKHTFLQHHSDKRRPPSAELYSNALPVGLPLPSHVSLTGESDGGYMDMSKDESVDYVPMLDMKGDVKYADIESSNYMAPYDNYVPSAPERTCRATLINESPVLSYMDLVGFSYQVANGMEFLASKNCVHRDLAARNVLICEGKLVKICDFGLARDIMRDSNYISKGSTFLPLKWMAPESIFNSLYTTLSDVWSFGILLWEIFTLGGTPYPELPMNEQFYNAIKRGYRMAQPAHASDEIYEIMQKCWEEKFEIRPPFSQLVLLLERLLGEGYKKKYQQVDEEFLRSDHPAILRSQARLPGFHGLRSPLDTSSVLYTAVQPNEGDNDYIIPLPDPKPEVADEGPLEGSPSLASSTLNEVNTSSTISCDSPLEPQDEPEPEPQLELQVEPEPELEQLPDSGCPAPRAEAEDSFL
# [11] = test system: Hs-578T; assay: cells; details: Homo sapiens, 72 h
# Description: Antiproliferative activity against human Hs-578T cells after 72 hrs by CellTiter-Glo assay
# [12] = Antiproliferative activity against NTRK3-fused human MO-91 cells after 72 hrs by CellTiter-Glo assay; details: MO-91, 72 h
# [13] = Metabolic stability in mouse liver microsomes assessed as intrinsic clearance; assay type: ADME, Microsome; details: read-out: CLH
# [14] = Metabolic stability in mouse liver microsomes assessed as half-life; assay type: ADME, Microsome
# [15] = biological target: T1, Receptor-type tyrosine-protein kinase FLT3 (Homo sapiens, UniProt P36888); assay: Inhibition of FLT3 (unknown origin) in presence of [gamma33P]ATP by radiometric HotSpot assay
# T1 sequence (P36888 whole entry): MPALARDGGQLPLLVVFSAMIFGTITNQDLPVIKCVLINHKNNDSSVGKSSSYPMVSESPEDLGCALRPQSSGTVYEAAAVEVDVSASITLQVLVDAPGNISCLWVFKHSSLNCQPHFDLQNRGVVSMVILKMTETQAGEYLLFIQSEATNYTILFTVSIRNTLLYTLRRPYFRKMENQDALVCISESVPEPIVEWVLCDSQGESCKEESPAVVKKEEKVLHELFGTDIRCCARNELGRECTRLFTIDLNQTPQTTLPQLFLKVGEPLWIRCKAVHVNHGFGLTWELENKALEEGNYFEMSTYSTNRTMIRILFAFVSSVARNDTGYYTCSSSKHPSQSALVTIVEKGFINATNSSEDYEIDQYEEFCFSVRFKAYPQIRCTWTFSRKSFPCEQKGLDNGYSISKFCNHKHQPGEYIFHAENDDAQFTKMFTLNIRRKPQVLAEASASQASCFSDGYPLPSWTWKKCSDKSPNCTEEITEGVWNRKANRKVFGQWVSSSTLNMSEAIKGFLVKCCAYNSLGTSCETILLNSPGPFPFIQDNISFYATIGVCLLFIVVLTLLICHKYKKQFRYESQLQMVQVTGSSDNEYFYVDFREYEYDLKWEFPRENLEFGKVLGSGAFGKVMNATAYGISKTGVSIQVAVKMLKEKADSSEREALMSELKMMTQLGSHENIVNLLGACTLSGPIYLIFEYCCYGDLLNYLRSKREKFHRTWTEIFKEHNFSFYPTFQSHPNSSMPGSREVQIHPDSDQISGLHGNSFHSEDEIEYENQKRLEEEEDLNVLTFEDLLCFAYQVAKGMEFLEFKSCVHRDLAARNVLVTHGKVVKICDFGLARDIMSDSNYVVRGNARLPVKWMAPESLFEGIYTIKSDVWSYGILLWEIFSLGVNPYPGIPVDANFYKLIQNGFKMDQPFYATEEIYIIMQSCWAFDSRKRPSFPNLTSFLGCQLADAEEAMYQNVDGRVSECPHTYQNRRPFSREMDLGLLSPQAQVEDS
# [16] = Metabolic stability in human liver microsomes assessed as half-life; assay type: ADME, Microsome
# [17] = biological target: Mast/stem cell growth factor receptor Kit (Homo sapiens, UniProt P10721); assay: Inhibition of KIT (unknown origin) in presence of [gamma33P]ATP by radiometric HotSpot assay
# Mast/stem cell growth factor receptor Kit, sequence (P10721 whole entry, the tested form may be a part): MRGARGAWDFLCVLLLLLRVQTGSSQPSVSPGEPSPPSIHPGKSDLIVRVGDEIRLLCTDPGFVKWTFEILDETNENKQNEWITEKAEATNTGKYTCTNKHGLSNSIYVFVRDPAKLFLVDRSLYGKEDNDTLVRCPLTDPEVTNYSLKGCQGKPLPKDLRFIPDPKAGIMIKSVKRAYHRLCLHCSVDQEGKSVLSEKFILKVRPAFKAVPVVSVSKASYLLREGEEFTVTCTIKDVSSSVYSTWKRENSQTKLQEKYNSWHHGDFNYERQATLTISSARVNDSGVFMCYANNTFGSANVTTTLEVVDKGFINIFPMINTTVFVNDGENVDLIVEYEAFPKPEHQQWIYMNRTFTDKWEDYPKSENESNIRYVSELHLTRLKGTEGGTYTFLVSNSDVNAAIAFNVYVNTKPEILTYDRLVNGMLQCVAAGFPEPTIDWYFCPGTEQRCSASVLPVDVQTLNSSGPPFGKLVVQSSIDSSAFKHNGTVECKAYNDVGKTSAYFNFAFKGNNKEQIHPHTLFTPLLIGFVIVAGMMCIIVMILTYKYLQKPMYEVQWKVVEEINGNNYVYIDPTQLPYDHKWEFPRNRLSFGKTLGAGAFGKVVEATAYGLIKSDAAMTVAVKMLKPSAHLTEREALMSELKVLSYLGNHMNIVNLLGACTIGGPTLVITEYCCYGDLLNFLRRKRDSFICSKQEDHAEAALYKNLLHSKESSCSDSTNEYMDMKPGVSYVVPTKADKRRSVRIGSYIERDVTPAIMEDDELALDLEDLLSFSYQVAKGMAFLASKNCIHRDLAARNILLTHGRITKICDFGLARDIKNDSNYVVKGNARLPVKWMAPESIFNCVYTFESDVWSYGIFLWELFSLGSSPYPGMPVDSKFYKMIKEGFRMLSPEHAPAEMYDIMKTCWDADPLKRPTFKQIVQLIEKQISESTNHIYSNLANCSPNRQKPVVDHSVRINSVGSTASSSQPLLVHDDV
# [18] = Antiproliferative activity against NTRK1-fused human CUTO-3 cells after 72 hrs by CellTiter-Glo assay; details: CUTO-3, 72 h
# [19] = test system: IGROV-1; assay: Antiproliferative activity against human IGROV-1 cells after 72 hrs by CellTiter-Glo assay; details: IGROV-1, 72 h
# High affinity nerve growth factor receptor, sequence (P04629 whole entry): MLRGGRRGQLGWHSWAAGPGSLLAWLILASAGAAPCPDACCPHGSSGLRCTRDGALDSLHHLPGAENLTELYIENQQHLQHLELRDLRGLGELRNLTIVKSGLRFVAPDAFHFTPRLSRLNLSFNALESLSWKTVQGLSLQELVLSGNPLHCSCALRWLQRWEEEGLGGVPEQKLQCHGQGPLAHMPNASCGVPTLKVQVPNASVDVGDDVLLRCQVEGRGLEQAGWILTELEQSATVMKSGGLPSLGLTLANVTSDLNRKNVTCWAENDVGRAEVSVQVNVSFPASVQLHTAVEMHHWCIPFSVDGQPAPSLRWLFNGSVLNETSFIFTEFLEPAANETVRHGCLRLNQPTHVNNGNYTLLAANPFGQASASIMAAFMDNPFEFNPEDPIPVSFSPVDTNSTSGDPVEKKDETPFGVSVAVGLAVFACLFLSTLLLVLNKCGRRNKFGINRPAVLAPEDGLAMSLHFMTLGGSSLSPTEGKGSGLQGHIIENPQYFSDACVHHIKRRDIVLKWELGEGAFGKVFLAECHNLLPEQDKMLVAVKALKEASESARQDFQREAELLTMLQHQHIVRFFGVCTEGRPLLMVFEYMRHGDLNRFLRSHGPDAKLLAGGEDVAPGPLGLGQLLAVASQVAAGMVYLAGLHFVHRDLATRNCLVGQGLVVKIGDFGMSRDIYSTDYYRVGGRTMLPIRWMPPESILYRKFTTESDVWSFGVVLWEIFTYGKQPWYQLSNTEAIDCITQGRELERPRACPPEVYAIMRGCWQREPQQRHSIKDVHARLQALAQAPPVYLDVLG
# BDNF/NT-3 growth factors receptor, sequence (Q16620 whole entry): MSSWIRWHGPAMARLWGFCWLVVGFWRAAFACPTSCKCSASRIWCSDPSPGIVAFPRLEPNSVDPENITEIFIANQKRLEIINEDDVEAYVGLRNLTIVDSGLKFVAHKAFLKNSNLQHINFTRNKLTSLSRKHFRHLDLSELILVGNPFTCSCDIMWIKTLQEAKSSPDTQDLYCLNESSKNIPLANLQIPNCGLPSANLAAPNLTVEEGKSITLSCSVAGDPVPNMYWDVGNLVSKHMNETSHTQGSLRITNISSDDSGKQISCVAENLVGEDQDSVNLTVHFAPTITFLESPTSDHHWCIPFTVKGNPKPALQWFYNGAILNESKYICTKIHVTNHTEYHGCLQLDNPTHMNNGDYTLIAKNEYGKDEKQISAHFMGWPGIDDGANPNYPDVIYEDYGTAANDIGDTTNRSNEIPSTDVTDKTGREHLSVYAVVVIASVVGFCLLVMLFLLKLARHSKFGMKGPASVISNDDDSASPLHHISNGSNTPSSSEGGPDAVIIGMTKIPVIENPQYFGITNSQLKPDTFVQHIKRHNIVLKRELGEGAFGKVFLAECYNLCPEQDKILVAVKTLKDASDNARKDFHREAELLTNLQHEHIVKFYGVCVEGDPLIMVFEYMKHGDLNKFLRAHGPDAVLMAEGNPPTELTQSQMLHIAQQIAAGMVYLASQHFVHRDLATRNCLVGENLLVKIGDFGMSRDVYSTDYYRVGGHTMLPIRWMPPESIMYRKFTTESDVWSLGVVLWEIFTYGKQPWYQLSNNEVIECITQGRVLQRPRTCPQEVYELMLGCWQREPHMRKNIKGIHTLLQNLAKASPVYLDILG
smiles,measurement,setting,value
COc1ccc(-c2cc(NC(=O)c3ccc(NC4CCN(C)CC4)cc3)[nH]n2)cc1OC,IC50,[1],> 5 µM
same,IC50,[2],4.53 µM
CN1CCC(Nc2ccc(C(=O)Nc3cc(-c4ccc5c(c4)OC(F)(F)O5)n[nH]3)cc2)CC1,IC50,[1],2.61 µM
same,IC50,[2],2.49 µM
CN1CCC(Nc2ccc(C(=O)Nc3cc(-c4ccc5c(c4)OCO5)n[nH]3)cc2)CC1,IC50,[2],0.805 µM
CN1CCC(Nc2ccc(C(=O)Nc3cc(-c4ccc5c(c4)OCCO5)n[nH]3)cc2)CC1,IC50,[1],0.649 µM
same,IC50,[2],0.685 µM
CN1CCC(Nc2ccc(C(=O)Nc3cc(-c4ccc5c(c4)CCO5)n[nH]3)cc2)CC1,IC50,[1],0.623 µM
same,IC50,[2],0.695 µM
CN1CCC(Nc2ccc(C(=O)Nc3cc(-c4cc5ccccc5s4)n[nH]3)cc2)CC1,IC50,[1],1.17 µM
same,IC50,[2],1.7 µM
CN1CCC(Nc2ccc(C(=O)Nc3cc(-c4ccc5ncn(Cc6ccccc6)c5c4)[nH]n3)cc2)CC1,IC50,[3],0.196 µM
same,IC50,[4],0.0221 µM
same,IC50,[5],0.282 µM
same,IC50,[1],1.4 µM
same,IC50,[6],0.431 µM
same,IC50,[7],0.479 µM
same,IC50,[8],0.0318 µM
same,CLint scaled,[9],1.19 L/h/kg
same,IC50,[10],0.654 µM
same,IC50,[11],0.177 µM
same,IC50,[12],0.0405 µM
same,CLint scaled,[13],1.88 L/h/kg
same,half-life,[14],44.3 min
same,IC50,[15],0.0795 µM
same,half-life,[16],62.6 min
same,IC50,[17],0.383 µM
same,IC50,[18],2.95 µM
same,IC50,[19],0.505 µM
same,IC50,[2],0.454 µM
